According to PubChem BioAssay AID1918948 (Molecular Pharmacology Branch, DTP, NCI, 2023):

System: K-562 leukemia growth, % test/control
Assay: Anticancer human tumor K-562 cell line growth inhibition;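 note: spheroids exposed to compounds for 7 days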;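 for viability, T/C: 100% = DMSO vehicle wells and lower values mean fewer viable cells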
Conditions: spheroids with HUVEC and MSC; for IC50: curve of first compound; for viability, T/C: stronger effect = lower value
In short: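 Multicellular complex spheroids of tumor cells with human endothelial cells (HUVEC) and mesenchymal stem cells; the LSD1 inhibitor iadademstat was combined with standard-of-care or investigational agents. Top concentration at or near clinical Cmax, half-log dilutions; final DMSO ≤0.25%.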

[1] = second compound 0.1 µM, first compound 0.0316 µM
[2] = second compound 0.1 µM, first compound 0.1 µM
[3] = second compound 0.316 µM, first compound 0.0316 µM
[4] = second compound 0.316 µM, first compound 0.1 µM
[5] = second compound 1 µM, first compound 0.0316 µM
[6] = second compound 1 µM, first compound 0.1 µM
[7] = second compound 3.16 µM, first compound 0.0316 µM
[8] = second compound 3.16 µM, first compound 0.1 µM
[9] = second compound 10 µM, first compound 0.0316 µM
[10] = second compound 10 µM, first compound 0.1 µM

Structure (SMILES): CC1(C)CCC(CN2CCN(c3ccc(C(=O)NS(=O)(=O)c4ccc(NCC5CCOCC5)c([N+](=O)[O-])c4)c(Oc4cnc5[nH]ccc5c4)c3)CC2)=C(c2ccc(Cl)cc2)C1 + NC1CCC(NC2CC2c2ccccc2)CC1
- IC50 (second compound 0.1 µM): 6.56 µM
- IC50 (second compound 0.316 µM): 6.65 µM
- IC50 (second compound 1 µM): 6.57 µM
- IC50 (second compound 3.16 µM): 6.94 µM
- IC50 (second compound 10 µM): 6.52 µM
- viability, T/C [1]: 99.8%
- viability, T/C [2]: 102%
- viability, T/C (second compound 0.1 µM, first compound 0.316 µM): 101%
- viability, T/C (second compound 0.1 µM, first compound 1 µM): 104%
- viability, T/C (second compound 0.1 µM, first compound 3.16 µM): 109%
- viability, T/C (second compound 0.1 µM, first compound 10 µM): 19.1%
- viability, T/C [3]: 102%
- viability, T/C [4]: 104%
- viability, T/C (second compound 0.316 µM, first compound 0.316 µM): 104%
- viability, T/C (second compound 0.316 µM, first compound 1 µM): 101%
- viability, T/C (second compound 0.316 µM, first compound 3.16 µM): 110%
- viability, T/C (second compound 0.316 µM, first compound 10 µM): 20%
- viability, T/C [5]: 104%
- viability, T/C [6]: 104%
- viability, T/C (second compound 1 µM, first compound 0.316 µM): 107%
- viability, T/C (second compound 1 µM, first compound 1 µM): 108%
- viability, T/C (second compound 1 µM, first compound 3.16 µM): 110%
- viability, T/C (second compound 1 µM, first compound 10 µM): 17.6%
- viability, T/C [7]: 105%
- viability, T/C [8]: 103%
- viability, T/C (second compound 3.16 µM, first compound 0.316 µM): 104%
- viability, T/C (second compound 3.16 µM, first compound 1 µM): 108%
- viability, T/C (second compound 3.16 µM, first compound 3.16 µM): 106%
- viability, T/C (second compound 3.16 µM, first compound 10 µM): 24.3%
- viability, T/C [9]: 97.6%
- viability, T/C [10]: 99.6%
- viability, T/C (second compound 10 µM, first compound 0.316 µM): 99.8%
- viability, T/C (second compound 10 µM, first compound 1 µM): 101%
- viability, T/C (second compound 10 µM, first compound 3.16 µM): 101%
- viability, T/C (second compound 10 µM, first compound 10 µM): 20.5%

Structure (SMILES): CCN(c1cc(-c2ccc(CN3CCOCC3)cc2)cc(C(=O)NCc2c(C)cc(C)[nH]c2=O)c1C)C1CCOCC1 + NC1CCC(NC2CC2c2ccccc2)CC1
- IC50 (second compound 0.1 µM): > 3 µM
- IC50 (second compound 0.316 µM): > 3 µM
- IC50 (second compound 1 µM): > 3 µM
- IC50 (second compound 3.16 µM): > 3 µM
- IC50 (second compound 10 µM): 2.22 µM
- viability, T/C (second compound 0.1 µM, first compound 0.00949 µM): 112%
- viability, T/C (second compound 0.1 µM, first compound 0.03 µM): 107%
- viability, T/C (second compound 0.1 µM, first compound 0.0949 µM): 106%
- viability, T/C (second compound 0.1 µM, first compound 0.3 µM): 106%
- viability, T/C (second compound 0.1 µM, first compound 0.949 µM): 106%
- viability, T/C (second compound 0.1 µM, first compound 3 µM): 98.8%
- viability, T/C (second compound 0.316 µM, first compound 0.00949 µM): 112%
- viability, T/C (second compound 0.316 µM, first compound 0.03 µM): 109%
- viability, T/C (second compound 0.316 µM, first compound 0.0949 µM): 107%
- viability, T/C (second compound 0.316 µM, first compound 0.3 µM): 108%
- viability, T/C (second compound 0.316 µM, first compound 0.949 µM): 105%
- viability, T/C (second compound 0.316 µM, first compound 3 µM): 101%
- viability, T/C (second compound 1 µM, first compound 0.00949 µM): 113%
- viability, T/C (second compound 1 µM, first compound 0.03 µM): 112%
- viability, T/C (second compound 1 µM, first compound 0.0949 µM): 106%
- viability, T/C (second compound 1 µM, first compound 0.3 µM): 109%
- viability, T/C (second compound 1 µM, first compound 0.949 µM): 105%
- viability, T/C (second compound 1 µM, first compound 3 µM): 99.5%
- viability, T/C (second compound 3.16 µM, first compound 0.00949 µM): 113%
- viability, T/C (second compound 3.16 µM, first compound 0.03 µM): 110%
- viability, T/C (second compound 3.16 µM, first compound 0.0949 µM): 107%
- viability, T/C (second compound 3.16 µM, first compound 0.3 µM): 106%
- viability, T/C (second compound 3.16 µM, first compound 0.949 µM): 104%
- viability, T/C (second compound 3.16 µM, first compound 3 µM): 95%
- viability, T/C (second compound 10 µM, first compound 0.00949 µM): 103%
- viability, T/C (second compound 10 µM, first compound 0.03 µM): 101%
- viability, T/C (second compound 10 µM, first compound 0.0949 µM): 93.7%
- viability, T/C (second compound 10 µM, first compound 0.3 µM): 86%
- viability, T/C (second compound 10 µM, first compound 0.949 µM): 69.4%
- viability, T/C (second compound 10 µM, first compound 3 µM): 42.9%

Structure (SMILES): Cn1ncnc1C1c2n[nH]c(=O)c3cc(F)cc(c23)NC1c1ccc(F)cc1 (stereo not given) + NC1CCC(NC2CC2c2ccccc2)CC1
- IC50 (second compound 0.1 µM): > 0.1 µM
- IC50 (second compound 0.316 µM): > 0.1 µM
- IC50 (second compound 1 µM): > 0.1 µM
- IC50 (second compound 3.16 µM): > 0.1 µM
- IC50 (second compound 10 µM): > 0.1 µM
- viability, T/C (second compound 0.1 µM, first compound 0.000316 µM): 102%
- viability, T/C (second compound 0.1 µM, first compound 0.001 µM): 97.6%
- viability, T/C (second compound 0.1 µM, first compound 0.00316 µM): 101%
- viability, T/C (second compound 0.1 µM, first compound 0.01 µM): 101%
- viability, T/C [1]: 101%
- viability, T/C [2]: 97%
- viability, T/C (second compound 0.316 µM, first compound 0.000316 µM): 101%
- viability, T/C (second compound 0.316 µM, first compound 0.001 µM): 102%
- viability, T/C (second compound 0.316 µM, first compound 0.00316 µM): 102%
- viability, T/C (second compound 0.316 µM, first compound 0.01 µM): 99%
- viability, T/C [3]: 101%
- viability, T/C [4]: 98.9%
- viability, T/C (second compound 1 µM, first compound 0.000316 µM): 108%
- viability, T/C (second compound 1 µM, first compound 0.001 µM): 102%
- viability, T/C (second compound 1 µM, first compound 0.00316 µM): 99.7%
- viability, T/C (second compound 1 µM, first compound 0.01 µM): 103%
- viability, T/C [5]: 102%
- viability, T/C [6]: 101%
- viability, T/C (second compound 3.16 µM, first compound 0.000316 µM): 100%
- viability, T/C (second compound 3.16 µM, first compound 0.001 µM): 103%
- viability, T/C (second compound 3.16 µM, first compound 0.00316 µM): 104%
- viability, T/C (second compound 3.16 µM, first compound 0.01 µM): 104%
- viability, T/C [7]: 104%
- viability, T/C [8]: 101%
- viability, T/C (second compound 10 µM, first compound 0.000316 µM): 99.3%
- viability, T/C (second compound 10 µM, first compound 0.001 µM): 99.6%
- viability, T/C (second compound 10 µM, first compound 0.00316 µM): 101%
- viability, T/C (second compound 10 µM, first compound 0.01 µM): 101%
- viability, T/C [9]: 98.5%
- viability, T/C [10]: 96.1%
